Results published in patent US20250066370A1, “BICYCLIC TRIAZINE DERIVATIVES FOR THE TREATMENT OF CANCER” (DEUTSCHES KREBSFORSCHUNGSZENTRUM, priority 2022, published 2025).

Tests used:
CDK2/CyclinE = CDK2/CyclinE (Homo sapiens (Human), UniProt P24941); test: CDK2/CycE kinase assay (TR-FRET); type: biochemical; settings: 2 mM ATP (high ATP); median; read-out: CDK2/CyclinE, 2 mM ATP (high ATP), IC50 - [mol/l] (median)
From the text: CDK2/CycE-inhibitory activity of compounds of the present invention was quantified employing the CDK2/CycE TR-FRET assay as described in the following paragraphs.
Recombinant fusion proteins of GST and human CDK2 and of GST and human CycE, expressed in insect cells (Sf9) and purified by Glutathion-Sepharose affinity chromatography, were purchased from ProQinase GmbH (Freiburg, Germany). As substrate for the kinase reaction biotinylated peptide biotin-Ttds-YISPLKSPYKISEG (C-terminus in amid form) was used which can be purchased e.g. form the company JERINI peptide technologies (Berlin, Germany).
For the assay 50 nanoL of a 100 fold concentrated solution of the test compound in DMSO was pipetted into a black low volume 384 well microtiter plate or a black 1536 well microtiter plate (both Greiner Bio-One, Frickenhausen, Germany), 2 microL of a solution of CDK2/CycE in aqueous assay buffer [50 millimol/L Tris/HCl PH 8.0, 10 millimol/L MgCl2, 1.0 millimol/L dithiothreitol, 0.1 millimol/L sodium ortho-vanadate, 0.01% (v/v) Nonidet-P40 (Sigma)] were added and the mixture was incubated for 15 min at 22° C. to allow pre-binding of the test compounds to the enzyme before the start of the kinase reaction. Then the kinase reaction was started by the addition of 3 microL of a solution of adenosine-tri-phosphate (ATP, 3.33 millimol/L=>final conc. in the 5 microL assay volume is 2 millimol/L) and substrate (1.25 micromol/L=>final conc. in the 5 microL assay volume is 0.75 micromol/L) in assay buffer and the resulting mixture was incubated for a reaction time of 25 min at 22° C. The concentration of CDK2/CycE was adjusted depending of the activity of the enzyme lot and was chosen appropriate to have the assay in the linear range, typical concentrations were in the range of 10 ng/ml. The reaction was stopped by the addition of 3 microL of a solution of TR-FRET detection reagents (0.333 micromol/L streptavidine-XL665 [Cisbio Bioassays, Codolet, France] and 1.67 nanomol/L anti-RB (pSer807/pSer811)-antibody from BD Pharmingen [#558389] and 2 nanomol/L LANCE EU-W1024 labeled anti-mouse IgG antibody [Perkin-Elmer, product no. AD0077, as an alternative a Terbium-cryptate-labeled anti-mouse IgG antibody from Cisbio Bioassays can be used]) in an aqueous EDTA-solution (167 millimol/L EDTA, 0.2% (w/v) bovine serum albumin in 100 millimol/L HEPES pH 7.5).
The resulting mixture was incubated 1 h at 22° C. to allow the formation of complex between the phosphorylated biotinylated peptide and the detection reagents. Subsequently the amount of phosphorylated substrate was evaluated by measurement of the resonance energy transfer from the Eu-chelate to the streptavidine-XL. Therefore, the fluorescence emissions at 620 nm and 665 nm after excitation at 350 nm was measured in a TR-FRET reader, e.g. a Pherastar (BMG Labtechnologies, Offenburg, Germany) or a Viewlux (Perkin-Elmer). The ratio of the emissions at 665 nm and at […] was taken as the measure for the amount of phosphorylated substrate. The data were normalised (enzyme reaction without inhibitor=0% inhibition, all other assay components but no enzyme=100% inhibition).

CYCLIN K = CYCLIN K nuclear protein level: immunofluorescence/high content analysis in CAL-120 cells; type: cell-based, human; settings: 24 h, nuclear CCNK staining intensity, median, read-out: CYCLIN K degradation IF, DC50 - [mol/l] (median)
Method: CAL-120 human breast cancer cells (DSMZ ACC 459) are seeded in 1536-well microtiter plates (800 cells per well) containing 50 nanoL of compounds in Dose-Response. Control wells received DMSO or Example 4. Plates are then incubated for 24 h at 37° C. in an humidified incubator and fixed with 4% PFA for 10 min. Then immunofluorescence (IF) against CYCLIN K (ThermoFisher Scientific CCNK Antibody #PA5-85020, rabbit, 1:200 dilution) is performed using standard IF protocols. Cells are then stained with Hoechst 33342 (Life Technologies, H-1399, 0.1 microg/ml) and imaged on an automated confocal microscopy system (e.g. Perkin Elmer Opera Phenix). Nuclear and cytoplasmic intensity as well as the nuclear/cytoplasmic intensity ratio is determined by automated image analysis using custom generated scripts (MetaXpress). Data is then transferred to Genedata Screener software, normalized to DMSO and control and DC50 values (degrading concentration to achieve 50% reduction of nuclear CCNK staining intensity relative to controls) are reported.

MDA-MB-231-CDK12d-res = test: Proliferation assay CDK12 degrader resistant MDA-MB-231; type: cell-based, human; settings: for IC50: Homo sapiens, 96 h, CDK12 degrader resistant MDA-MB-231 cells, 4 days, median, read-out: Prolif-MDA MB-231-CDK12d-res, IC50 - [mol/] (median); for Ratio (Prolif-MDA MB-231-CDK12d-res IC50 / Prolif-MDA MB-231 IC50): resistant versus parental MDA-MB-231 cells
From the text: CDK12-degrader resistant cells were generated by propagation of CAL-120 human breast adenocarcinoma cells (DSMZ ACC-459) and MDA-MB-231 human breast cancer cells (ATCC HTB-26) in presence of increasing concentrations of the CDK12 degrader compound example 4 from WO 2021/116178. Initial concentrations of example 4 were 2.0E-08 M for CAL-120 cells and 4.6E-08 M for MDA-MB-231 cells, corresponding to ca. 2-fold the IC50 of inhibition of the cells in an proliferation assay. After the treated cells recovered and proliferated again the concentration of compound example 4 was increased to 3-fold IC50.
To determine the inhibitory effect of test compounds on proliferation of CAL-120-CDK12d-res, MDA-MB-231-CDK12d-res the cells were plated at a density of 4,000 cells/well in a 96-well multitier plate in 200 microL of their respective growth medium supplemented 10% fetal calf serum. After 24 hours, the cells of one plate (zero-point plate) were stained with crystal violet (see below), while the medium of the other plates was supplemented with the test substances in various concentrations (0 micromol/L, as well as in the range of 0.01-10 micromol/L; the final concentration of the solvent dimethyl sulfoxide was adjusted to 0.1%) using a Tecan HP D300 Digital Dispenser. The cells were incubated for 4 days in the presence of test substances. Cell proliferation was determined by staining the cells with crystal violet: the cells were fixed by adding 20 microL/measuring point of an 11% glutaric aldehyde solution for 15 minutes at room temperature. After three washing cycles of the fixed cells with water, the plates were dried at room temperature. The cells were stained by adding 100 microL/measuring point of a 0.1% crystal violet solution (pH 3.0). After three washing cycles of the stained cells with water, the plates were dried at room temperature. The dye was dissolved by adding 100 microL/measuring point of a 10% acetic acid solution. The extinction was determined by photometry at a wavelength of 595 nm. The change of cell number, in percent, was calculated by normalization of the measured values to the extinction values of the zero-point plate (=0%) and the extinction of the untreated (0 μM) cells (=100%). The IC50 values (inhibitory concentration at 50% of maximal effect) were determined by means of a 4 parameter fit.

| IC50 (CDK2/CyclinE) [µM] | DC50 (CYCLIN K) [µM] | IC50 (MDA-MB-231-CDK12d-res) [µM] | SMILES | Ratio (Prolif-MDA MB-231-CDK12d-res IC50 / Prolif-MDA MB-231 IC50) (MDA-MB-231-CDK12d-res) |
| --- | --- | --- | --- | --- |
| > 20 | > 1 |  | FC(F)(F)c1ccc(-c2nnc(CNc3nc(N4CCOCC4)nn4c(C(F)(F)F)cnc34)[nH]2)cc1 [Example 11, 2-(morpholin-4-yl)-7-(trifluoromethyl)-N-({5-[4-(trifluoromethyl)phenyl]-4H-1,2,4-triazol-3-yl}methyl)imidazo[2,1-f][1,2,4]triazin-4-amine] |  |
|  | > 1 | 0.288 | COc1ccc(-c2nnc(CNc3nc(N4CCOCC4)nn4c(C(F)(F)F)cnc34)[nH]2)cn1 [Example 18, N-{[5-(6-methoxypyridin-3-yl)-4H-1,2,4-triazol-3-yl]methyl}-2-(morpholin-4-yl)-7-(trifluoromethyl)imidazo[2,1-f][1,2,4]triazin-4-amine] | 4.0 |
| 6.39 |  |  | COc1ccc(-c2cnc(CNc3nc(N4CCOCC4)nc4c(C(F)(F)F)cnn34)[nH]2)cn1 [Example 21, N-{[5-(6-methoxypyridin-3-yl)-1H-imidazol-2-yl]methyl}-2-(morpholin-4-yl)-8-(trifluoromethyl)pyrazolo[1,5-a][1,3,5]triazin-4-amine] |  |
| > 20 |  | 0.156 | FC(F)(F)c1ccc(-c2cnc(CNc3nc(N4CCOCC4)nn4c(C(F)(F)F)cnc34)[nH]2)cc1 [Example 7, 2-(morpholin-4-yl)-7-(trifluoromethyl)-N-({5-[4-(trifluoromethyl)phenyl]-1H-imidazol-2-yl}methyl)imidazo[2,1-f][1,2,4]triazin-4-amine] | 1.7 |
| 7.92 |  |  | FC(F)(F)c1ccc(-c2cnc(CNc3nc(N4CCOCC4)nc4c(Br)cnn34)[nH]2)cc1 [Example 3, 8-bromo-2-(morpholin-4-yl)-N-({5-[4-(trifluoromethyl)phenyl]-1H-imidazol-2-yl}methyl)pyrazolo[1,5-a][1,3,5]triazin-4-amine] |  |
| 11.2 |  |  | FC(F)(F)Oc1ccc(-c2nnc(CNc3nc(N4CCOCC4)nc4c(Br)cnn34)[nH]2)cc1 [Example 2, 8-bromo-2-(morpholin-4-yl)-N-({5-[4-(trifluoromethoxy)phenyl]-4H-1,2,4-triazol-3-yl}methyl)pyrazolo[1,5-a][1,3,5]triazin-4-amine] |  |
| > 20 |  | 0.031 | FC(F)(F)c1ccc(-c2cnc(CNc3nc(N4CCOCC4)nn4c(C(F)(F)F)cnc34)[nH]2)cn1 [Example 12, 2-(morpholin-4-yl)-7-(trifluoromethyl)-N-({5-[6-(trifluoromethyl)pyridin-3-yl]-1H-imidazol-2-yl}methyl)imidazo[2,1-f][1,2,4]triazin-4-amine] | 1.4 |
| 10.4 |  |  | FC(F)(F)Oc1ccc(-c2cnc(CNc3nc(N4CCOCC4)nc4c(Br)cnn34)[nH]2)cc1 [Example 4, 8-bromo-2-(morpholin-4-yl)-N-({5-[4-(trifluoromethoxy)phenyl]-1H-imidazol-2-yl}methyl)pyrazolo[1,5-a][1,3,5]triazin-4-amine] |  |
|  | > 1 | 0.0626 | FC(F)(F)c1ccc(-c2cnc(CNc3nc(N4CCOCC4)nc4c(C(F)(F)F)cnn34)[nH]2)cn1 [Example 24, 2-(morpholin-4-yl)-8-(trifluoromethyl)-N-({5-[6-(trifluoromethyl)pyridin-3-yl]-1H-imidazol-2-yl}methyl)pyrazolo[1,5-a][1,3,5]triazin-4-amine] | 2.9 |
| 3.12 |  |  | Cc1ccc(-c2nnc(CNc3nc(N4CCOCC4)nc4c(C(F)(F)F)cnn34)[nH]2)cn1 [Example 22, N-{[5-(6-methylpyridin-3-yl)-4H-1,2,4-triazol-3-yl]methyl}-2-(morpholin-4-yl)-8-(trifluoromethyl)pyrazolo[1,5-a][1,3,5]triazin-4-amine] |  |
| > 20 |  |  | FC(F)(F)Oc1ccc(-c2nnc(CNc3nc(N4CCOCC4)nn4c(C(F)(F)F)cnc34)[nH]2)cc1 [Example 14, 2-(morpholin-4-yl)-N-({5-[4-(trifluoromethoxy)phenyl]-4H-1,2,4-triazol-3-yl}methyl)-7-(trifluoromethyl)imidazo[2,1-f][1,2,4]triazin-4-amine] |  |
| > 20 |  | 0.15 | FC(F)(F)c1ccc(-c2cnc(CNc3nc(N4CCOCC4)nc4c(C(F)(F)F)cnn34)[nH]2)cc1 [Example 9, 2-(morpholin-4-yl)-8-(trifluoromethyl)-N-({5-[4-(trifluoromethyl)phenyl]-1H-imidazol-2-yl}methyl)pyrazolo[1,5-a][1,3,5]triazin-4-amine] | 0.8 |
| > 20 |  | 0.103 | FC(F)(F)Oc1ccc(-c2nnc(CNc3nc(N4CCOCC4)nn4c(C(F)(F)F)cnc34)[nH]2)cn1 [Example 19, 2-(morpholin-4-yl)-N-({5-[6-(trifluoromethoxy)pyridin-3-yl]-4H-1,2,4-triazol-3-yl}methyl)-7-(trifluoromethyl)imidazo[2,1-f][1,2,4]triazin-4-amine] | 2.7 |
| 9.81 |  |  | FC(F)(F)c1ccc(-c2nnc(CNc3nc(N4CCOCC4)nc4c(Br)cnn34)[nH]2)cc1 [Example 1, 8-bromo-2-(morpholin-4-yl)-N-({5-[4-(trifluoromethyl)phenyl]-4H-1,2,4-triazol-3-yl}methyl)pyrazolo[1,5-a][1,3,5]triazin-4-amine] |  |
